Laboratory results: the supplement of paper PMC11061612

Columns and labels:
Carboplatin = compound: C1CC(C1)(C(=O)[O-])C(=O)[O-].N.N.[Pt+2] [Carboplatin]; conditions: max 10 µM
How it was run: (§1)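 Cancer cell lines were dosed for 72 hours (final DMSO typically 0.2%) after 24 hours at 37°C and 5% CO2 in 1536-well plates containing 7.5 μl DMEM/F12 or RPMI with 10% FBS. Viability came from CellTiter-Glo 2.0 luminescence, scaled between blank-well and DMSO-well means, and dose responses were fitted to a two-parameter logistic curve with a non-linear mixed effects model. The single-agent IC50 was obtained from this fit.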

AZD5363 = compound: C1CN(CCC1(C(=O)N[C@@H](CCO)C2=CC=C(C=C2)Cl)N)C3=NC=NC4=C3C=CN4 [AZD5363]; conditions: max 10 µM
How it was run: as §1

AZD1775 = compound: C=CCn1c(=O)c2cnc(Nc3ccc(N4CCN(C)CC4)cc3)nc2n1-c1cccc(C(C)(C)O)n1 [AZD1775]; conditions: max 3 µM
How it was run: as §1

Trametinib = compound: CC(=O)Nc1cccc(-n2c(=O)n(C3CC3)c(=O)c3c(Nc4ccc(I)cc4F)n(C)c(=O)c(C)c32)c1 [Trametinib]; conditions: max 1 µM
How it was run: as §1

Paclitaxel = compound: CC(=O)O[C@H]1C(=O)[C@@]2(C)[C@H]([C@H](OC(=O)c3ccccc3)[C@]3(O)C[C@H](OC(=O)[C@H](O)[C@@H](NC(=O)c4ccccc4)c4ccccc4)C(C)=C1C3(C)C)[C@]1(OC(C)=O)CO[C@@H]1C[C@@H]2O [Paclitaxel]; conditions: max 3 µM
How it was run: as §1

Palbociclib = compound: CC(=O)c1c(C)c2cnc(Nc3ccc(N4CCNCC4)cn3)nc2n(C2CCCC2)c1=O [Palbociclib]; conditions: max 10 µM
How it was run: as §1

AZD1390 = compound: CC(C)n1c(=O)n(C)c2cnc3cc(F)c(-c4ccc(OCCCN5CCCCC5)nc4)cc3c21 [AZD1390]; conditions: max 0.3 µM
How it was run: as §1

Venetoclax = compound: CC1(C)CCC(CN2CCN(c3ccc(C(=O)NS(=O)(=O)c4ccc(NCC5CCOCC5)c([N+](=O)[O-])c4)c(Oc4cnc5[nH]ccc5c4)c3)CC2)=C(c2ccc(Cl)cc2)C1 [Venetoclax]; conditions: max 1 µM
How it was run: as §1

Dasatinib = compound: CC1=C(C(=CC=C1)Cl)NC(=O)C2=CN=C(S2)NC3=CC(=NC(=N3)C)N4CCN(CC4)CCO [Dasatinib]; conditions: max 2 µM
How it was run: as §1

SG3199 = compound: CC1=CN2[C@@H](C1)C=NC3=CC(=C(C=C3C2=O)OC)OCCCCCOC4=C(C=C5C(=C4)N=C[C@@H]6CC(=CN6C5=O)C)OC [SG3199]; conditions: max 0.001 µM
How it was run: as §1

AZD2811 = compound: CCN(CCO)CCCOc1ccc2c(Nc3cc(CC(=O)Nc4cccc(F)c4)[nH]n3)ncnc2c1 [AZD2811]; conditions: max 1 µM
How it was run: as §1

SN-38 = compound: CCc1c2c(nc3ccc(O)cc13)-c1cc3c(c(=O)n1C2)COC(=O)[C@]3(O)CC [SN-38]; conditions: max 0.3 µM
How it was run: as §1

AZD0156 = compound: CN(C)CCCOc1ccc(-c2ccc3ncc4c(c3c2)n(C2CCOCC2)c(=O)n4C)cn1 [AZD0156]; conditions: max 3 µM
How it was run: as §1

AZD4320 = compound: CN(CC[C@H](CSC1=CC=CC=C1)NC2=C(C=C(C=C2)S(=O)(=O)NC(=O)C3=CC=C(C=C3)N4CCC(CC4)[C@H](C5=CC=CC=C5C6=CC=C(C=C6)Cl)O)S(=O)(=O)C(F)(F)F)CCO [AZD4320]; conditions: max 1 µM
How it was run: as §1

Alisertib = compound: COc1cc(Nc2ncc3c(n2)-c2ccc(Cl)cc2C(c2c(F)cccc2OC)=NC3)ccc1C(=O)O [Alisertib]; conditions: max 10 µM
How it was run: as §1

Etoposide = compound: COc1cc([C@@H]2c3cc4c(cc3[C@@H](O[C@@H]3O[C@@H]5CO[C@@H](C)O[C@H]5[C@H](O)[C@H]3O)[C@H]3COC(=O)[C@H]23)OCO4)cc(OC)c1O [Etoposide]; conditions: max 10 µM
How it was run: as §1

Gefitinib = compound: COc1cc2ncnc(Nc3ccc(F)c(Cl)c3)c2cc1OCCCN1CCOCC1 [Gefitinib]; conditions: max 10 µM
How it was run: as §1

Prexasertib = compound: COc1cccc(OCCCN)c1-c1cc(Nc2cnc(C#N)cn2)n[nH]1 [Prexasertib]; conditions: max 1 µM
How it was run: as §1

Doxorubicin = compound: COc1cccc2c1C(=O)c1c(O)c3c(c(O)c1C2=O)C[C@@](O)(C(=O)CO)C[C@@H]3O[C@H]1C[C@H](N)[C@H](O)[C@H](C)O1 [Doxorubicin]; conditions: max 1 µM
How it was run: as §1

AZD5153 = compound: COc1nnc2ccc(N3CCC(c4ccc(OCCN5CCN(C)C(=O)[C@H]5C)cc4)CC3)nn12 [AZD5153]; conditions: max 1 µM
How it was run: as §1

Lapatinib = compound: CS(=O)(=O)CCNCc1ccc(-c2ccc3ncnc(Nc4ccc(OCc5cccc(F)c5)c(Cl)c4)c3c2)o1 [Lapatinib]; conditions: max 10 µM
How it was run: as §1

AZD8186 = compound: C[C@@H](Nc1cc(F)cc(F)c1)c1cc(C(=O)N(C)C)cc2c(=O)cc(N3CCOCC3)oc12 [AZD8186]; conditions: max 10 µM
How it was run: as §1

Crizotinib = compound: C[C@@H](Oc1cc(-c2cnn(C3CCNCC3)c2)cnc1N)c1c(Cl)ccc(F)c1Cl [Crizotinib]; conditions: max 10 µM
How it was run: as §1

Savolitinib = compound: C[C@@H](c1ccc2nccn2c1)n1nnc2ncc(-c3cnn(C)c3)nc21 [Savolitinib]; conditions: max 1 µM
How it was run: as §1

AZD6738 = compound: C[C@@H]1COCCN1C2=NC(=NC(=C2)C3(CC3)[S@](=N)(=O)C)C4=C5C=CNC5=NC=C4 [AZD6738]; conditions: max 10 µM
How it was run: as §1

AZD5991 = compound: Cc1c2c(nn1C)CSCc1cc(n(C)n1)CSc1cc(c3ccccc3c1)OCCCc1c(C(=O)O)n(C)c3c-2c(Cl)ccc13 [AZD5991]; conditions: max 1 µM
How it was run: as §1

AZD7648 = compound: Cc1cc2ncnn2cc1Nc1ncc2c(n1)n(C1CCOCC1)c(=O)n2C [AZD7648]; conditions: max 10 µM
How it was run: as §1

Taselisib = compound: Cc1nc(-c2cn3c(n2)-c2ccc(-c4cnn(C(C)(C)C(N)=O)c4)cc2OCC3)n(C(C)C)n1 [Taselisib]; conditions: max 10 µM
How it was run: as §1

Selumetinib = compound: Cn1cnc2c(F)c(Nc3ccc(Br)cc3Cl)c(C(=O)NOCCO)cc21 [Selumetinib]; conditions: max 10 µM
How it was run: as §1

SRA737 = compound: N#Cc1cnc(Nc2cc(NC[C@H]3CNCCO3)c(C(F)(F)F)cn2)cn1 [SRA737]; conditions: max 10 µM
How it was run: as §1

MK-2206 = compound: NC1(c2ccc(-c3nc4ccn5c(=O)[nH]nc5c4cc3-c3ccccc3)cc2)CCC1 [MK-2206]; conditions: max 10 µM
How it was run: as §1

Gemcitabine = compound: Nc1ccn([C@@H]2O[C@H](CO)[C@@H](O)C2(F)F)c(=O)n1 [Gemcitabine]; conditions: max 0.3 µM
How it was run: as §1

[1] = compound: O=C(Nc1ccc2[nH]nc(-c3ccncc3)c2c1)[C@@H]1CCN(CC(=O)N2CCN(c3ccc(-c4ncccn4)cc3)CC2)C1; conditions: max 5 µM
How it was run: as §1

Olaparib = compound: O=C(c1cc(Cc2n[nH]c(=O)c3ccccc23)ccc1F)N1CCN(C(=O)C2CC2)CC1 [Olaparib]; conditions: max 10 µM
How it was run: as §1

5-Fluorouracil = compound: O=c1[nH]cc(F)c(=O)[nH]1 [5-Fluorouracil]; conditions: max 20 µM
How it was run: as §1

Cell Line	IC50, cell viability 72 h (Carboplatin)	IC50, cell viability 72 h (AZD5363)	IC50, cell viability 72 h (AZD1775)	IC50, cell viability 72 h (Trametinib)	IC50, cell viability 72 h (Paclitaxel)	IC50, cell viability 72 h (Palbociclib)	IC50, cell viability 72 h (AZD1390)	IC50, cell viability 72 h (Venetoclax)	IC50, cell viability 72 h (Dasatinib)	IC50, cell viability 72 h (SG3199)	IC50, cell viability 72 h (AZD2811)	IC50, cell viability 72 h (SN-38)	IC50, cell viability 72 h (AZD0156)	IC50, cell viability 72 h (AZD4320)	IC50, cell viability 72 h (Alisertib)	IC50, cell viability 72 h (Etoposide)	IC50, cell viability 72 h (Gefitinib)	IC50, cell viability 72 h (Prexasertib)	IC50, cell viability 72 h (Doxorubicin)	IC50, cell viability 72 h (AZD5153)	IC50, cell viability 72 h (Lapatinib)	IC50, cell viability 72 h (AZD8186)	IC50, cell viability 72 h (Crizotinib)	IC50, cell viability 72 h (Savolitinib)	IC50, cell viability 72 h (AZD6738)	IC50, cell viability 72 h (AZD5991)	IC50, cell viability 72 h (AZD7648)	IC50, cell viability 72 h (Taselisib)	IC50, cell viability 72 h (Selumetinib)	IC50, cell viability 72 h (SRA737)	IC50, cell viability 72 h (MK-2206)	IC50, cell viability 72 h (Gemcitabine)	IC50, cell viability 72 h [1]	IC50, cell viability 72 h (Olaparib)	IC50, cell viability 72 h (5-Fluorouracil)
DB (B-Cell Non-Hodgkin's Lymphoma)	> 10 µM	> 10 µM	0.526 µM	> 1 µM	0.00571 µM	7.68 µM	> 0.3 µM	0.119 µM	> 2 µM	> 0.001 µM	0.537 µM	0.00452 µM	> 3 µM	0.143 µM	3.88 µM	3.69 µM	> 10 µM	0.21 µM	0.251 µM	0.21 µM	> 10 µM	> 10 µM	7.97 µM	> 1 µM	> 10 µM	0.109 µM	> 10 µM	> 10 µM	> 10 µM	> 10 µM	> 10 µM	0.00896 µM	> 5 µM	> 10 µM	> 20 µM
KARPAS-1106P (B-Cell Non-Hodgkin's Lymphoma)	> 10 µM	> 10 µM	0.495 µM	> 1 µM	0.134 µM	> 10 µM	> 0.3 µM	> 1 µM	0.213 µM	> 0.001 µM	> 1 µM	0.00305 µM	> 3 µM	> 1 µM	> 10 µM	1.79 µM	> 10 µM	0.0112 µM	0.146 µM	0.132 µM	> 10 µM	0.705 µM	4 µM	> 1 µM	3.96 µM	0.127 µM	> 10 µM	0.462 µM	> 10 µM	2.18 µM	> 10 µM	0.0183 µM	> 5 µM	> 10 µM	> 20 µM
DOV13 (Ovarian Carcinoma)	> 10 µM	> 10 µM	1.11 µM	> 1 µM	0.0317 µM	2.02 µM	> 0.3 µM	> 1 µM	0.165 µM	> 0.001 µM	0.98 µM	0.00935 µM	> 3 µM	0.464 µM	1.93 µM	2.73 µM	> 10 µM	0.0407 µM	0.308 µM	0.65 µM	> 10 µM	> 10 µM	7.02 µM	> 1 µM	2.13 µM	> 1 µM	> 10 µM	4.65 µM	> 10 µM	> 10 µM	> 10 µM	0.0118 µM	> 5 µM	> 10 µM	> 20 µM
NCI-H1299 (Non-Small Cell Lung Carcinoma)	> 10 µM	> 10 µM	0.364 µM	0.912 µM	0.134 µM	> 10 µM	> 0.3 µM	> 1 µM	1.57 µM	> 0.001 µM	> 1 µM	> 0.3 µM	> 3 µM	> 1 µM	> 10 µM	> 10 µM	> 10 µM	0.1 µM	0.88 µM	0.184 µM	> 10 µM	> 10 µM	> 10 µM	> 1 µM	9.87 µM	> 1 µM	> 10 µM	> 10 µM	> 10 µM	> 10 µM	> 10 µM	0.239 µM	> 5 µM	> 10 µM	> 20 µM
MDA-MB-157 (Breast Carcinoma)	> 10 µM	> 10 µM	0.973 µM	> 1 µM	0.132 µM	> 10 µM	> 0.3 µM	> 1 µM	> 2 µM	> 0.001 µM	> 1 µM	0.0626 µM	> 3 µM	> 1 µM	> 10 µM	8.86 µM	> 10 µM	0.01 µM	> 1 µM	0.398 µM	> 10 µM	> 10 µM	> 10 µM	> 1 µM	0.926 µM	0.457 µM	> 10 µM	> 10 µM	> 10 µM	1.23 µM	> 10 µM	0.213 µM	> 5 µM	> 10 µM	10.6 µM
